From patent US20110183925A1, “ANTI-INFLAMMATORY PEPTIDE” (NISSHIN PHARMA INC., priority 2008, published 2011)
Where no end group is shown, it is not given here. [ ]: non-standard residue; d: D form. pGlu = O=C1CC[C@@H](C(=O)O)N1

Legend:
Caspase-1 (ICE) = target: T1, Caspase-1 (ICE) (Homo sapiens, UniProt P29466); test: Measurement of ICE-inhibiting activity (Ac-Trp-Glu-His-Asp-AMC substrate, HPLC quantification); format: biochemical; conditions: 1 mg/mL peptide sample, 5 μL in reaction; 37° C., 20 minutes; Control (No Peptide) = 100%; lower = more inhibition
T1 construct: purchased Biomol; International LP
T1 sequence (P29466 120-297 limits assumed): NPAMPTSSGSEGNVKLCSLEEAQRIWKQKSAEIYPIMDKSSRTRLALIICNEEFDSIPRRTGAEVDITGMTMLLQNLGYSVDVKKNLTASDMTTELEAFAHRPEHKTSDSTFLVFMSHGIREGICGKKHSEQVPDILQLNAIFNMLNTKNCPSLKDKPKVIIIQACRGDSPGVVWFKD
T1 sequence (P29466 317-404 limits assumed): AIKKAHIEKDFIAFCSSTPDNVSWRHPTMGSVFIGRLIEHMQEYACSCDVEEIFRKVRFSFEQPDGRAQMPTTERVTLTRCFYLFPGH
Experimental: One mg/mL each of samples of pyroglutamyl peptides (pyroGlu-Leu, pyroGlu-Val, pyroGlu-Met, pyroGlu-Phe, pyroGlu-Gln-Gln, and pyroGlu-Pro-Gln) synthesized in Production Examples above were prepared and evaluated for ICE-inhibiting activity as follows.
Each sample (5 μL) was added to 10 μL of 2,000 μmol/L reactive substrate (Caspase-1 substrate (Ac-Trp-Glu-His-Asp-AMC) from Alexis Biochemicals), 5 μL of 10 U/μl enzyme solution (Caspase-1 from Biomol. International LP), 60 μL of buffer (50 mmol/L HEPES, pH 7.4, 100 mM NaCl, 0.1% CHAPS, 1 mM EDTA, 10% glycerol, and 10 mM DTT), and 20 μL of distilled water, which was reacted at 37° C. for 20 minutes. Thereto was added 10% trifluoroacetic acid to a final concentration of 1% to stop the reaction. The substrate and the product were separated under the following conditions using reversed-phase high-performance liquid chromatography. The substrate and the product were fluorescently measured at an excitation wavelength of 380 nm and a measuring wavelength of 460 nm for quantification.
(§1) (Chromatography Condition)
(§2) Solution A: 10% acetonitrile (0.1% TFA)/Solution B: 80% acetonitrile (0.1% TFA)
(§3) Gradient: Solution B from 50% to 100%
(§4) Measuring Wavelength: 230 nm
The results are shown in Table 2 below as the ratio of the fluorescence intensity of the product to the fluorescence intensity of the product and the substrate.

Recombinant Human TACE = target: T2, Recombinant Human TACE (Homo sapiens, UniProt P78536); test: Measurement of TACE-inhibiting activity (fluorogenic substrate, HPLC quantification); format: biochemical; conditions: 1 mg/mL peptide sample, 10 μL in reaction; 37° C., 20 minutes; Control (No Peptide) = 100%; lower = more inhibition
T2 construct: purchased R&D Systems
T2 sequence (P78536 215-824): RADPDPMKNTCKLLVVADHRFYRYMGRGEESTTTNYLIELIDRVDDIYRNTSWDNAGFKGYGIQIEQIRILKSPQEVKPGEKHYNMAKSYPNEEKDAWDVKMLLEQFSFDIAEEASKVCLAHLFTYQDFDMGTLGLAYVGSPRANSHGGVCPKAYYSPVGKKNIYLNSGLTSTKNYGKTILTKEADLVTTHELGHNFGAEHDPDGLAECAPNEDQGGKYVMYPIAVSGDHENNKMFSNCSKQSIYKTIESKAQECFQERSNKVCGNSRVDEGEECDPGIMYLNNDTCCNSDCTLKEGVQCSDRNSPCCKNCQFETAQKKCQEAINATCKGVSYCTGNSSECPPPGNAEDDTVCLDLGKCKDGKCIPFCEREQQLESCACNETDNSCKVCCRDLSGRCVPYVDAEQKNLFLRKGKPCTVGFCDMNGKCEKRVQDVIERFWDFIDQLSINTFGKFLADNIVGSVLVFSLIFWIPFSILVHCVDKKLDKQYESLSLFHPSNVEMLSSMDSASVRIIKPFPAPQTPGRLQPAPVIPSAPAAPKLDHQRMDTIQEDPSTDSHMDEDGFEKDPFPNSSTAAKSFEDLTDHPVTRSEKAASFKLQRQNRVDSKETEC
Experimental: One mg/mL each of samples of pyroglutamyl peptides (pyroGlu-Leu, pyroGlu-Val, pyroGlu-Met, pyroGlu-Phe, pyroGlu-Gln-Gln, and pyroGlu-Pro-Gln) synthesized in Production Examples above were prepared and evaluated for TACE-inhibiting activity as follows.
Each sample (10 μL) was added to 10 μL of 1 μmol/L reactive substrate (TACE Substrate (Mac-PLAQAV-Dpa-RSSSR-NH2) from Biomol. International LP), 10 μL of 10 ng/10 μL enzyme solution (Recombinant Human TACE from R&D Systems), 50 μL of buffer (50 mmol/L Tris-HCl, pH 9.0, 5 μM ZnCl2, 0.01% Brij35), and 20 μL of distilled water, which was reacted at 37° C. for 20 minutes. Thereto was added 10% trifluoroacetic acid to a final concentration of 1% to stop the reaction. The substrate and the product were separated under the following conditions using reversed-phase high-performance liquid chromatography. The substrate and the product were fluorescently measured at an excitation wavelength of 320 nm and a measuring wavelength of 405 nm for quantification.
as §1, §2, §3, §4
The results are shown in Table 1 below as the ratio of the fluorescence intensity of the product to the fluorescence intensity of the product and the substrate.

| Substance | ratio of the fluorescence intensity of the product to the fluorescence intensity of the product and the substrate (ICE/caspase-1 reaction) (Caspase-1 (ICE)) | ratio of the fluorescence intensity of the product to the fluorescence intensity of the product and the substrate (TACE reaction) (Recombinant Human TACE) |
| --- | --- | --- |
| [pGlu]-Met | 75% | 83% |
| [pGlu]-Gln-Gln | 63% | 70% |
| [pGlu]-Val | 74% | 81% |

The remaining lines, values ahead:

| ratio of the fluorescence intensity of the product to the fluorescence intensity of the product and the substrate (ICE/caspase-1 reaction) (Caspase-1 (ICE)) | ratio of the fluorescence intensity of the product to the fluorescence intensity of the product and the substrate (TACE reaction) (Recombinant Human TACE) | Substance |
| --- | --- | --- |
| 72% | 84% | pyroGlu-Phe |
| 62% | 66% | [pGlu]-Pro-Gln |
| 55% | 61% | [pGlu]-Leu |
